Literature values in patent publication US7625888B2, “Fused triazole derivatives as dipeptidyl peptidase-IV inhibitors for the treatment or prevention of diabetes” (Merck & Co., Inc., priority 2004, dated 2009).

Columns and labels:
cardiac allograft = details: rats; doubled from day 7
hematopoiesis = details: mouse, cyclophosphamide-induced neutropenia
DPP-IV = target: T1, DPP-IV (Homo sapiens, UniProt P27487)
T1 construct: GRF is rapidly degraded in plasma to GRF[3-44]
T1 sequence (P27487 39-766 limits assumed, species assumed): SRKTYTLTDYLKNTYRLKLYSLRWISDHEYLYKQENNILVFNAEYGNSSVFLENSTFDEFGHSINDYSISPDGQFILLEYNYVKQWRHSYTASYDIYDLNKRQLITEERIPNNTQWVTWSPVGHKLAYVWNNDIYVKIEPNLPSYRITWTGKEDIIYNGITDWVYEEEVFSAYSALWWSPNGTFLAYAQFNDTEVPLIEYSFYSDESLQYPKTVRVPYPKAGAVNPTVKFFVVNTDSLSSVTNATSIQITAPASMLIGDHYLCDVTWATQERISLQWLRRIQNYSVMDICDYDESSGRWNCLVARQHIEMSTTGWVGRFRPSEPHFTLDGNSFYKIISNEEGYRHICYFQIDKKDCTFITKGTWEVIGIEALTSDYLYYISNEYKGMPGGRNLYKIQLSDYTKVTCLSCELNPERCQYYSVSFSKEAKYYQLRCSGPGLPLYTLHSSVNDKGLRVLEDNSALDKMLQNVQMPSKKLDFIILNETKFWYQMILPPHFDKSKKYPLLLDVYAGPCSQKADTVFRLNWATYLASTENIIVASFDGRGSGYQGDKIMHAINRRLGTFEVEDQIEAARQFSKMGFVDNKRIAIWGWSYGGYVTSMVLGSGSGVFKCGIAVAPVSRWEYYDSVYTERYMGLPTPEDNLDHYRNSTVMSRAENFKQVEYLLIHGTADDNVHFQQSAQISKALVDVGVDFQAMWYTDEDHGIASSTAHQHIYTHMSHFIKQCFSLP

CC(C)N1CCC(c2ccccc2)(c2ccccc2)CC1 [Prodipine, Pro-Pro-diphenyl-phosphonate]
cardiac allograft survival (cardiac allograft): 14 day

CC(C)[C@H](N)C(=O)N1CCC[C@H]1B(O)O [Val-Boro-Pro]
effect on hematopoiesis (hematopoiesis): stimulated hematopoiesis

diprotin A
degradation of GRF in plasma to GRF[3-44] (DPP-IV): prevented
